ChEMBL document CHEMBL5212743, “Selectivity Literature for EUbOPEN Chemogenomics Library wave 3” (2023)
One block for each compound: values may come before it.

Assays:
[1] = target: Hepatocyte growth factor receptor (Homo sapiens) (UniProt P08581); details: at 1 µM
[2] = target: Mitogen-activated protein kinase kinase kinase kinase 2 (Homo sapiens) (UniProt Q12851); details: at 1 µM
[3] = target: Epidermal growth factor receptor (Homo sapiens, UniProt P00533); assay: Selectivity interaction (KinomeScan (DiscoverX)) EUB0000709a EGFR; details: at 100 nM
[4] = target: cAMP-dependent protein kinase catalytic subunit alpha (Homo sapiens, UniProt P17612); assay: Selectivity interaction (KinomeScan (DiscoverX)) EUB0000709a PRKACA; details: at 100 nM
[5] = target: T1, Phosphatidylinositol 4,5-bisphosphate 3-kinase catalytic subunit delta isoform (Homo sapiens) (UniProt O00329); assay: Selectivity interaction (KinomeScan (DiscoverX)) EUB0000709a PIK3CD; details: at 100 nM
T1 sequence (whole entry): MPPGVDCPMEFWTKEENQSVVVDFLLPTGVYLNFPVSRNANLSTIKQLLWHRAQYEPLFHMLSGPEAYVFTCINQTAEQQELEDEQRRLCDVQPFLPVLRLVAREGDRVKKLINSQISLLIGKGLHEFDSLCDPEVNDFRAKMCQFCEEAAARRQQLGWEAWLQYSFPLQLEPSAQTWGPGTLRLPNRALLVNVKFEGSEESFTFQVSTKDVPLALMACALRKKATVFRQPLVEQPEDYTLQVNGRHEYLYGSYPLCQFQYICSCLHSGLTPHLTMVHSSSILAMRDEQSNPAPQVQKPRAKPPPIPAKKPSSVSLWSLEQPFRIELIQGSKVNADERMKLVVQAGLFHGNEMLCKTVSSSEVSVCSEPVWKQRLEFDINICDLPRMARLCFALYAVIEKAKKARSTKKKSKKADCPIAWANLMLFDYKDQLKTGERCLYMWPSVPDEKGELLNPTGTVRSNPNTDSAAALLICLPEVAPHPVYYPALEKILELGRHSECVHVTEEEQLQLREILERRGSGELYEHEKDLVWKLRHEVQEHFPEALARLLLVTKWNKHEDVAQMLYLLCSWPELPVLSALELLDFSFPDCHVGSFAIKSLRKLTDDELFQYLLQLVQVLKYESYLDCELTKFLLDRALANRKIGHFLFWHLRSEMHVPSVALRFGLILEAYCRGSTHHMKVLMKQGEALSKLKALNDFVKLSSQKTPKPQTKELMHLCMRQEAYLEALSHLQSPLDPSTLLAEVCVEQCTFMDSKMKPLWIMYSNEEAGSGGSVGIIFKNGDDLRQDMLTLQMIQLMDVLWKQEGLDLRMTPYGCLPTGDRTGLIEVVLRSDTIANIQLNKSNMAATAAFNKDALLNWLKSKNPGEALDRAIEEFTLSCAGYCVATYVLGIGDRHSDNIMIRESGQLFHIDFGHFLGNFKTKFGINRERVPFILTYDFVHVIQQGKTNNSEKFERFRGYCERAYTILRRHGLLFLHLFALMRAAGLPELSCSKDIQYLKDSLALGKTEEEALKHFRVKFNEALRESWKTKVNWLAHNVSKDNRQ

[6] = target: T2, Dual specificity mitogen-activated protein kinase kinase 5 (Homo sapiens) (UniProt Q13163); assay: Selectivity interaction (ScanMAX (DiscoverX)) EUB0000700a MAP2K5; details: at 10 µM
T2 sequence (whole entry): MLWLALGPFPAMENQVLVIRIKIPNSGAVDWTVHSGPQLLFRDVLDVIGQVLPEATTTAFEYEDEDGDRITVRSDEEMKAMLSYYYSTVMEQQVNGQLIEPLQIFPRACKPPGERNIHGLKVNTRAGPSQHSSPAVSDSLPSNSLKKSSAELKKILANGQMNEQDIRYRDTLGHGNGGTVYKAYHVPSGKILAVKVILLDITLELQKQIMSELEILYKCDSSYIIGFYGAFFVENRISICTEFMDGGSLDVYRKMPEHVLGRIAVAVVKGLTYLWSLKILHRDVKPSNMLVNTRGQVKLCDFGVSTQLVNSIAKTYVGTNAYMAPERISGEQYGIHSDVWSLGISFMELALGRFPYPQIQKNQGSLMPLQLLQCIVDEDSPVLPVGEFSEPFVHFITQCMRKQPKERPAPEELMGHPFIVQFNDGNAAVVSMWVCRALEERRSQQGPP

[7] = target: Bromodomain-containing protein 9 (Homo sapiens) (UniProt Q9H8M2); assay: Selectivity interaction (Bromodomain panel (DSF assay)) EUB0000004c BRD9
CREB-binding protein = CREB-binding protein (Homo sapiens, UniProt Q92793); assay: Selectivity interaction (Bromoscan (DiscoverX, BromoKdELECT)) EUB0000004c CREBBP; details: at 10 µM
[8] = target: Transcription initiation factor TFIID subunit 1 (Homo sapiens, UniProt P21675); assay: Selectivity interaction (Bromoscan (DiscoverX, BromoKdELECT)) EUB0000004c TAF1; details: at 10 µM
[9] = target: T3, Chromatin remodeling regulator CECR2 (Homo sapiens, UniProt Q9BXF3); assay: Selectivity interaction (Bromoscan (DiscoverX, BromoKdELECT)) EUB0000004c CECR2; details: at 10 µM
[10] = target: T3, Chromatin remodeling regulator CECR2; assay: Selectivity interaction (Bromodomain panel (DSF assay)) EUB0000004c CECR2
[11] = target: T4, Bromodomain-containing protein 7 (Homo sapiens) (UniProt Q9NPI1); assay: Selectivity interaction (Bromodomain panel (DSF assay)) EUB0000004c BRD7
T4 sequence (whole entry): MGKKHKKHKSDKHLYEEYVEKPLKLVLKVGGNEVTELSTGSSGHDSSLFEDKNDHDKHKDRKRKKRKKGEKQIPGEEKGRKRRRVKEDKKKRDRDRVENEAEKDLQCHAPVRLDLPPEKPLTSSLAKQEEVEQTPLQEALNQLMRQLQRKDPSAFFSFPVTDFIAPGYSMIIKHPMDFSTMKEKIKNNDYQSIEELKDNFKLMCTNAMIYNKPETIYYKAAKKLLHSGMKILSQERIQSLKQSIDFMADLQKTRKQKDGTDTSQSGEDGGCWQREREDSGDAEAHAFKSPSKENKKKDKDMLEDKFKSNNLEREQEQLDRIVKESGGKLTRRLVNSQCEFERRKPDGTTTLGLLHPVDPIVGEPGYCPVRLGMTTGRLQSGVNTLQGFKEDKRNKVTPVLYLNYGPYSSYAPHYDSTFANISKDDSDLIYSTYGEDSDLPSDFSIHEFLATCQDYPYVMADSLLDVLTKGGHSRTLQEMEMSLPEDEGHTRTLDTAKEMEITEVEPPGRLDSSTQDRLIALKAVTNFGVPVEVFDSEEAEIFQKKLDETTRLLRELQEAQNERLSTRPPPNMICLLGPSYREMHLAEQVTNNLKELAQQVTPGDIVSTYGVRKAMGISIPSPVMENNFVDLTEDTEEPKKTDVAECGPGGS

[12] = target: Tyrosine-protein kinase ABL1 (Homo sapiens, UniProt P00519); assay: Selectivity interaction (KinomeScan (DiscoverX)) EUB0000701a ABL1; details: at 1 µM
[13] = system: T5, Receptor-type tyrosine-protein kinase FLT3 (Homo sapiens), P36888 [D835V]; assay: (§1) Selectivity interaction (KinomeScan (DiscoverX)) EUB0000701a FLT3; details: at 1 µM
T5 sequence (whole entry): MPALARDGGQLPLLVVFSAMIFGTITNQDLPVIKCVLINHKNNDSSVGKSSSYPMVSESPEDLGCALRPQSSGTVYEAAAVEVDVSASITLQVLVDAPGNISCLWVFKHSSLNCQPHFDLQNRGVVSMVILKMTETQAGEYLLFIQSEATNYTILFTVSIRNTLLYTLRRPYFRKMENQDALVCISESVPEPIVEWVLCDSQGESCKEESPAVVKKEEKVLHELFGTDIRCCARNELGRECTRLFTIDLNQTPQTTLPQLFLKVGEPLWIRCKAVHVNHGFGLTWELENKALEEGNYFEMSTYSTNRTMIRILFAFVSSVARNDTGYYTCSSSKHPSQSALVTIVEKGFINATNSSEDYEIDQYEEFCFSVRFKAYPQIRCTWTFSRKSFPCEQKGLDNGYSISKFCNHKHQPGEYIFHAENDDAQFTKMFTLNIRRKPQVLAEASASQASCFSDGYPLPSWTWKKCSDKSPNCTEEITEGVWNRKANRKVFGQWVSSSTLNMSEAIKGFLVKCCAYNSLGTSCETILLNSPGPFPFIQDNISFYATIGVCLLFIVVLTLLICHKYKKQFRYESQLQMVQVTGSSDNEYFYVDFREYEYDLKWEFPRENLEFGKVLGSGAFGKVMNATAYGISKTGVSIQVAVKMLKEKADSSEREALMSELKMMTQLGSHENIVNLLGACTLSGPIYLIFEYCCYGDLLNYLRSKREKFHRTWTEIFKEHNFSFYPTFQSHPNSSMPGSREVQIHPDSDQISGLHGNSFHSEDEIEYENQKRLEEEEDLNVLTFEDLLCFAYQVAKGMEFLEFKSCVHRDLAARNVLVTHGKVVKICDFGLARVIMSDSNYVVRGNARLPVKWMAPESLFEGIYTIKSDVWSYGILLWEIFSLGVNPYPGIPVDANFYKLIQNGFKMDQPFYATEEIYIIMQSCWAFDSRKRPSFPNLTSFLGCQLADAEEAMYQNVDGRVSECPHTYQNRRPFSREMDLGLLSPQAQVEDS

[14] = system: Receptor-type tyrosine-protein kinase FLT3 (Homo sapiens), P36888 [UNDEFINED MUTATION]; assay: as §1; details: at 1 µM
[15] = target: Inhibitor of nuclear factor kappa-B kinase subunit epsilon (Homo sapiens) (UniProt Q14164); details: at 1 µM
[16] = target: T2, Dual specificity mitogen-activated protein kinase kinase 5 (Homo sapiens); assay: Selectivity interaction (KinomeScan (DiscoverX)) EUB0000701a MAP2K5; details: at 1 µM
[17] = target: T6, Mitogen-activated protein kinase kinase kinase 19 (Homo sapiens) (UniProt Q56UN5); assay: Selectivity interaction (KinomeScan (DiscoverX)) EUB0000701a MAP3K19; details: at 1 µM
T6 sequence (whole entry): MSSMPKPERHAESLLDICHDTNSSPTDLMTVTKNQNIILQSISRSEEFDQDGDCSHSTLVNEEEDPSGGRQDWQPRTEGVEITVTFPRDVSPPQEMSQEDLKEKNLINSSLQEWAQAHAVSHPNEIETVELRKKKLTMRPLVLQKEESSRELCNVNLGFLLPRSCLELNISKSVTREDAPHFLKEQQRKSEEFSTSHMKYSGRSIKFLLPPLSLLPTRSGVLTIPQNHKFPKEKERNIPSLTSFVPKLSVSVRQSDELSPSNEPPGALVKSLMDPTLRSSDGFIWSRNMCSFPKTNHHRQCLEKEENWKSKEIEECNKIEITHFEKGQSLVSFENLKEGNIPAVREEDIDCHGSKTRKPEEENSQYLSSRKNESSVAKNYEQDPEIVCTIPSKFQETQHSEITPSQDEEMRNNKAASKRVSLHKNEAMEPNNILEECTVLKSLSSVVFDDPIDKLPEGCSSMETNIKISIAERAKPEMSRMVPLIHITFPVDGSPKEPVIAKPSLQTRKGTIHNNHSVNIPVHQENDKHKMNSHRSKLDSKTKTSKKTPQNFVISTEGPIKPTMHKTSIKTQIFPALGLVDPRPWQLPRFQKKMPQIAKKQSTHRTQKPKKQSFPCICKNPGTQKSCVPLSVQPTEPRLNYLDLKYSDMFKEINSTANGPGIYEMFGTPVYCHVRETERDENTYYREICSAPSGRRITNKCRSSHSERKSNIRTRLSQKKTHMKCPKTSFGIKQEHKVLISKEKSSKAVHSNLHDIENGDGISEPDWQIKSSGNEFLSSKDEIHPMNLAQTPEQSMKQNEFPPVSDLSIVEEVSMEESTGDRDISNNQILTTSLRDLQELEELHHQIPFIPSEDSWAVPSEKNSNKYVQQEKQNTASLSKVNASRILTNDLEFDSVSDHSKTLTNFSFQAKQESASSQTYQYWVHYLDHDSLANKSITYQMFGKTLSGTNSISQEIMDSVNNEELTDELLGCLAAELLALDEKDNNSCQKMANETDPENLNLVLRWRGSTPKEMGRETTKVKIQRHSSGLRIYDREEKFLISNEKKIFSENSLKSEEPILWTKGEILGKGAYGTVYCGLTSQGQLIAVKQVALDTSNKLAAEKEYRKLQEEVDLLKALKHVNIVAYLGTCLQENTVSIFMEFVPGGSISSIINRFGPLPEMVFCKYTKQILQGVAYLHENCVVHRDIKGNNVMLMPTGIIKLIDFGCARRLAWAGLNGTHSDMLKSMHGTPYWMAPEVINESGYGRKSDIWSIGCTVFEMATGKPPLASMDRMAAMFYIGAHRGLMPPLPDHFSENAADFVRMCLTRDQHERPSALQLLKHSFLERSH

T3 sequence (Q9BXF3 whole entry, looked up): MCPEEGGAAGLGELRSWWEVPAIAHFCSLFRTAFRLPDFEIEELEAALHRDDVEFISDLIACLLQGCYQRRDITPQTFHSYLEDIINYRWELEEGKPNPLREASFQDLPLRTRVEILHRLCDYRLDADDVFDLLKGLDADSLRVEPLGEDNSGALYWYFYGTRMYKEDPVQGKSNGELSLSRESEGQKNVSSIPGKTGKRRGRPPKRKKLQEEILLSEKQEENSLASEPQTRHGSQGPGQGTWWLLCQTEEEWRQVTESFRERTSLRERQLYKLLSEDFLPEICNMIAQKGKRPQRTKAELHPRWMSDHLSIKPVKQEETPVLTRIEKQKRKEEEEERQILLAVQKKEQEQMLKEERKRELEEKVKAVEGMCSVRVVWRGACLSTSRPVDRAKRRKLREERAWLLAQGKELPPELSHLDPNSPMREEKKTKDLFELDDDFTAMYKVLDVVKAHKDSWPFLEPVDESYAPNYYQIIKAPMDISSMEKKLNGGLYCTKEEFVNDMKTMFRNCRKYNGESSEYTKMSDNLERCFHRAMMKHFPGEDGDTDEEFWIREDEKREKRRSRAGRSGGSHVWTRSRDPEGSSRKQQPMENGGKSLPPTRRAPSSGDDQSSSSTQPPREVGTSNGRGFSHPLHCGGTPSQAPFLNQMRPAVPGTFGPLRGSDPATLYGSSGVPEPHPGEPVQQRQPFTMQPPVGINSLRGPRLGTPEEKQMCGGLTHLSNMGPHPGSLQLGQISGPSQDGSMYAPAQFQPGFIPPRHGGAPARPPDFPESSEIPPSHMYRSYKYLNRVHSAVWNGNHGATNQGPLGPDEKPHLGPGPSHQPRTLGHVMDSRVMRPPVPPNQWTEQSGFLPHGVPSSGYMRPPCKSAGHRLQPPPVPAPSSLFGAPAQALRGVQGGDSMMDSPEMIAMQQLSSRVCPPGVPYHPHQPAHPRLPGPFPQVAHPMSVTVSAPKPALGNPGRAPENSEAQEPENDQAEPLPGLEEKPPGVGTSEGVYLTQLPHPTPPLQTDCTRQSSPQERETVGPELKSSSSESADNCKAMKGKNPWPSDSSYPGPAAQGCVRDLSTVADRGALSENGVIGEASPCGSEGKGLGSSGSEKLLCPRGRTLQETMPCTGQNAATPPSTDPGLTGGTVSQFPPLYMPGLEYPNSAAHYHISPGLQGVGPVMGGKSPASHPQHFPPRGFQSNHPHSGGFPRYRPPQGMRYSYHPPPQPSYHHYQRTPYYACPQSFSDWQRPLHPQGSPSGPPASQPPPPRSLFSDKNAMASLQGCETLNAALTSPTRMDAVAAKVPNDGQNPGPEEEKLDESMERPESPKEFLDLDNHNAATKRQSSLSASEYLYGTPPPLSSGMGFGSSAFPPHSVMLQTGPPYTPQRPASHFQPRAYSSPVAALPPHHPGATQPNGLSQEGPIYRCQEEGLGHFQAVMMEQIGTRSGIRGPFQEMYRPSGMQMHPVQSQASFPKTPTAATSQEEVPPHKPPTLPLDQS
Hepatocyte growth factor receptor (Homo sapiens), sequence (P08581 whole entry): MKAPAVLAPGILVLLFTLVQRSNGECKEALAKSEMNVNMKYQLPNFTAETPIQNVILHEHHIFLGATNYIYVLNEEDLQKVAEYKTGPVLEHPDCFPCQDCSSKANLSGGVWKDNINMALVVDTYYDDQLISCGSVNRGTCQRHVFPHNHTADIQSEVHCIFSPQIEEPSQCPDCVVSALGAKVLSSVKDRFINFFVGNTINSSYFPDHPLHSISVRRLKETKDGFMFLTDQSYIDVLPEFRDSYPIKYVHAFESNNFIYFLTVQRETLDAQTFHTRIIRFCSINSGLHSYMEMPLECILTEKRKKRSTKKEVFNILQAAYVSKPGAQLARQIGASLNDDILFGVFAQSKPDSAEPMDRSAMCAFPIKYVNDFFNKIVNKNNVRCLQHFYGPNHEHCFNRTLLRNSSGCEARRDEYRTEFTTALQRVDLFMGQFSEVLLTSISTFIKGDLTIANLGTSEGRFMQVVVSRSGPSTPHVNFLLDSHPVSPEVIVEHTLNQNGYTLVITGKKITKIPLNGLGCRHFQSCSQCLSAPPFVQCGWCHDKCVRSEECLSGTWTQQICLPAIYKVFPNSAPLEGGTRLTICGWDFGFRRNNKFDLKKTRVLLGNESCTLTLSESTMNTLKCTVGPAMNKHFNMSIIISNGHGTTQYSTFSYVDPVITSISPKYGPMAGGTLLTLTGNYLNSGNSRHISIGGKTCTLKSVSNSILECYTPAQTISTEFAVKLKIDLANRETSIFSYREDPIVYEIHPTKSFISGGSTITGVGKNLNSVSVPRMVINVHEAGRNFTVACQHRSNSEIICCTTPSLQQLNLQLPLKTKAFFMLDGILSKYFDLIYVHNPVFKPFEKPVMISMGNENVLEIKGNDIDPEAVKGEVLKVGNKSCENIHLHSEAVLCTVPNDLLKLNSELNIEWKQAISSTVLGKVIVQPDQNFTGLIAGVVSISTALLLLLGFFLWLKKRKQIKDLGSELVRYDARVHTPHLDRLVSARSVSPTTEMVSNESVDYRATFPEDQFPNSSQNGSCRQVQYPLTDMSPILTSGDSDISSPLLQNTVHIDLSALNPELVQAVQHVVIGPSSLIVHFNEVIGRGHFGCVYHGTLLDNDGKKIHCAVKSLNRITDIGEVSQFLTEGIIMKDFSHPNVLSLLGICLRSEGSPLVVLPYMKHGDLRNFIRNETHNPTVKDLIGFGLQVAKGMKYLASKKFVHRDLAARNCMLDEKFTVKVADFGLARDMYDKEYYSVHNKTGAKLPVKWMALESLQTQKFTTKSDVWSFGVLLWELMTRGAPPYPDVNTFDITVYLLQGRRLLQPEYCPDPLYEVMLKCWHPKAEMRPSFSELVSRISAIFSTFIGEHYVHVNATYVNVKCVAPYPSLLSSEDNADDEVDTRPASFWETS
Epidermal growth factor receptor, sequence (P00533 whole entry): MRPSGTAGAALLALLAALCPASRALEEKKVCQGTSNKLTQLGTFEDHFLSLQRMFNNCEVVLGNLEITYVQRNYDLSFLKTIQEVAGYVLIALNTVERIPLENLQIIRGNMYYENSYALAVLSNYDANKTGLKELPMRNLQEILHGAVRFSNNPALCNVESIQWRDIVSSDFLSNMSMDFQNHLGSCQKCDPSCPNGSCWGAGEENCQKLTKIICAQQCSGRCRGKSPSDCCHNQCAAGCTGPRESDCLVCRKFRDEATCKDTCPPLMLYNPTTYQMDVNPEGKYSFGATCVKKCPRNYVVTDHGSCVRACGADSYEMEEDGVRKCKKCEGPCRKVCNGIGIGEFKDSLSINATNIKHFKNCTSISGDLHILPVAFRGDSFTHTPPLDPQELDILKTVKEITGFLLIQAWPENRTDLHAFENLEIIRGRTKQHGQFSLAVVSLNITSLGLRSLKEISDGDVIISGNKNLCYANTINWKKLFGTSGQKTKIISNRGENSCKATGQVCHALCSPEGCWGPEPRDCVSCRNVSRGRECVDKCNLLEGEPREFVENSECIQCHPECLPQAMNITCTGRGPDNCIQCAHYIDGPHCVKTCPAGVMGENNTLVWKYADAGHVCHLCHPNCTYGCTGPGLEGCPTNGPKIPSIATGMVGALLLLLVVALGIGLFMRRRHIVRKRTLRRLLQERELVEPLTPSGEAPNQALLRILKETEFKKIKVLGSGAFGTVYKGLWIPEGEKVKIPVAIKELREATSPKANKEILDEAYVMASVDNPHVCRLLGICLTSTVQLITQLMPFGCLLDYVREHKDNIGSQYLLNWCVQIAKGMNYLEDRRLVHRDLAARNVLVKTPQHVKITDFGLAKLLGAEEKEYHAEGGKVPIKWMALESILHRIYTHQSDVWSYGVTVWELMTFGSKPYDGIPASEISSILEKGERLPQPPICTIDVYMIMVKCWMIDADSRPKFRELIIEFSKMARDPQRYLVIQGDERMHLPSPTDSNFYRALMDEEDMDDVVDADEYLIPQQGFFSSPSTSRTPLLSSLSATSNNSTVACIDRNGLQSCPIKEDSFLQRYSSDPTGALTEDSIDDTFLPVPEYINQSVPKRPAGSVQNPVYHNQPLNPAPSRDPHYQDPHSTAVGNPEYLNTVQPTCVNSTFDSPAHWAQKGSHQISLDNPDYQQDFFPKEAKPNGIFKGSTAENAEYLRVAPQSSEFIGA
Inhibitor of nuclear factor kappa-B kinase subunit epsilon (Homo sapiens), sequence (Q14164 whole entry): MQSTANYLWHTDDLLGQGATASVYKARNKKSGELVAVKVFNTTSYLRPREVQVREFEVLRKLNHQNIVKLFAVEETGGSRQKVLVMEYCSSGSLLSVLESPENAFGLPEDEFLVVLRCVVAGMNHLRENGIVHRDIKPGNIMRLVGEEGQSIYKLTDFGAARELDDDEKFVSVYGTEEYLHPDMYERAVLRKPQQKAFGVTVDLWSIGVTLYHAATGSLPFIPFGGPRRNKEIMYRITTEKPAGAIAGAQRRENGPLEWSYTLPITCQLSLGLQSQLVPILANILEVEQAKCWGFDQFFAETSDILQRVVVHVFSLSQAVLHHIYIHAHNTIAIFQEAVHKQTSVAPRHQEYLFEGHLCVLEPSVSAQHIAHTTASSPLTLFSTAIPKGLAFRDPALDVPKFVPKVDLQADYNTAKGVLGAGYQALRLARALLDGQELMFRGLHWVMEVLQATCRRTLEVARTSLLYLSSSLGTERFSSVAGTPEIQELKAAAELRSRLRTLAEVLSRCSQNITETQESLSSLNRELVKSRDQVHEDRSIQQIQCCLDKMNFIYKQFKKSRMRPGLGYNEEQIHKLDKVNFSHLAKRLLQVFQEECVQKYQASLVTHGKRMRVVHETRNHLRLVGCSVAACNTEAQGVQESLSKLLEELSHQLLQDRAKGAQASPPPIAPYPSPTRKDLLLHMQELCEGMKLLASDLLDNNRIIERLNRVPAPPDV

SMILES: Cn1cc(Cl)c2c(Oc3c(F)cc(Nc4cc(Cl)nc(N)n4)cc3F)ccnc21
- % of control [3]: 52%
- % of control [4]: 28%
- % of control [5]: 51%

SMILES: C[C@H](NC(=O)Nc1cc2[nH]ncc2c(CO)n1)c1ccccn1
- % of control [6]: 17.6%

SMILES: COc1cc(-c2cn(C)c(=O)c3cnccc23)c(OC)cc1CN(C)C
- dTm [7]: 9.21 K
- % of control (CREB-binding protein): 7.2%
- % of control [8]: 8.4%
- % of control [9]: 0%
- dTm [10]: 5.61 K
- dTm [11]: 6.47 K

Results, then the compound that gave them:

- % of inhibition [1]: 86%
- % of inhibition [2]: 99%
SMILES: C[C@]1(O)C[C@@H](c2nc(-c3ccc4ccc(-c5ccccc5)nc4c3)c3c(N)nccn32)C1

- % of control [12]: 4.2%
- % of control [13]: 7%
- % of control [14]: 15%
- % of control [15]: 13%
- % of control [16]: 1.8%
- % of control [17]: 15%
SMILES: CN(C)c1ncnc(-c2ccc3nc(Nc4cc(CN5CCN(C(=O)CC(F)(F)F)CC5)ccn4)[nH]c3c2)c1Cl
